The nature of data set [1]: Therapeutic index, ratio of IC50 for cytotoxicity against mouse 3T3-L1 cells to EC50 for anti-adipogenic in mouse 3T3-L1 cells. Format: toxicity, cell-based. Conditions: read-out: Ratio IC50/EC50.
Data set [2] can be described thus: Cytotoxicity against mouse 3T3-L1 cells assessed as reduction in cell viability incubated for 24 hrs by Sulforhodamine B assay. It is filed as toxicity, cell-based.
Data set [3] deals with 3T3-L1. The data set can be described thus: Anti-adipogenic activity in mouse 3T3-L1 cells assessed as lipid-lowering activity measured after 9 days by Oil Red O staining based microplate reader analysis. Conditions: 3T3-L1, 216 h. Format: functional, cell-based.
Data set [4] relates to 3T3-L1. The data set can be described thus: Anti-adipogenic activity in mouse 3T3-L1 cells assessed as lipid-lowering activity at 1 uM measured after 9 days by Oil Red O staining based microplate reader analysis relative to control. It is filed as functional. The note with it: time 9 day.
Data set [5] can be described thus: MRT (0 to t) in Sprague-Dawley rat at 2 mg/kg, iv administered for 24 hrs by LC-MS/MS analysis. It is filed as ADME, organism-based. Conditions: in vivo.
Data set [6] can be described thus: Apparent oral clearance in Sprague-Dawley rat at 5 mg/kg, po administered for 24 hrs by LC-MS/MS analysis. It is filed as ADME, organism-based. Conditions: in vivo.
The nature of data set [7]: AUC (0 to t) in Sprague-Dawley rat at 5 mg/kg, po administered for 24 hrs by LC-MS/MS analysis. Format: ADME, organism-based. Conditions: in vivo.
Data set [8] in a line: AUC (0 to infinity) in Sprague-Dawley rat at 5 mg/kg, po administered for 24 hrs by LC-MS/MS analysis. Format: ADME, organism-based. Conditions: in vivo.
A short description of data set [9]: MRT (0 to t) in Sprague-Dawley rat at 5 mg/kg, po administered for 24 hrs by LC-MS/MS analysis. Format: ADME, organism-based. Conditions: in vivo.
Data set [10] is described as follows: Apparent volume of distribution during terminal phase in Sprague-Dawley rat at 5 mg/kg, po administered for 24 hrs by LC-MS/MS analysis. Format: ADME, organism-based. Conditions: in vivo, read-out: Vz/F.
Data set [11] in a line: Half life in Sprague-Dawley rat at 5 mg/kg, po administered for 24 hrs by LC-MS/MS analysis. Format: ADME, organism-based. Conditions: in vivo.
A short description of data set [12]: AUC (0 to infinity) in Sprague-Dawley rat at 2 mg/kg, iv administered for 24 hrs by LC-MS/MS analysis. Conditions: in vivo. Format: ADME, organism-based.
Data set [13] is described as follows: Tmax in Sprague-Dawley rat at 5 mg/kg, po administered for 24 hrs by LC-MS/MS analysis. Format: ADME, organism-based. Conditions: in vivo.
The nature of data set [14]: Oral bioavailability (0 to infinity) in Sprague-Dawley rat at 5 mg/kg administered for 24 hrs by LC-MS/MS analysis. The note with it: in vivo. Format: ADME, organism-based.
Data set [15] can be described thus: Aqueous solubility of compound incubated for 24 hrs by HPLC analysis. It is filed as physicochemical. The note with it: aqueous medium.
A short description of data set [16]: Apparent volume of distribution during terminal phase in Sprague-Dawley rat at 2 mg/kg, iv administered for 24 hrs by LC-MS/MS analysis. It is filed as ADME, organism-based. Conditions: in vivo.
The nature of data set [17]: Oral bioavailability (0 to t) in Sprague-Dawley rat at 5 mg/kg administered for 24 hrs by LC-MS/MS analysis. Format: ADME, organism-based. The note with it: in vivo.
Data set [18] can be described thus: Half life in Sprague-Dawley rat at 2 mg/kg, iv administered for 24 hrs by LC-MS/MS analysis. Conditions: in vivo. It is filed as ADME, organism-based.
Data set [19] can be described thus: AUC (0 to t) in Sprague-Dawley rat at 2 mg/kg, iv administered for 24 hrs by LC-MS/MS analysis. It is filed as ADME, organism-based. The note with it: in vivo.
Data set [20] in a line: Cmax in Sprague-Dawley rat at 5 mg/kg, po administered for 24 hrs by LC-MS/MS analysis. Format: ADME, organism-based. Conditions: in vivo.

SMILES strings stand for the structures. ≈ marks a conversion by molar mass, not a printed value.

Broadly, the IC50 is the concentration at which inhibition is half-maximal. A word on the EC50: it is the concentration needed to bring the measured effect to its halfway point. As a reminder, the MRT last is the average time that molecules of a dose stay in the body. Broadly, the CL/F is clearance divided by bioavailability, as obtained after extravascular dosing. In general, AUC(0-t) refers to exposure summed from dosing to a finite time, without extrapolation to infinity. A low value points to less exposure. As usually defined, the AUC(0-inf) is the area under the concentration-time curve extrapolated to infinity. In general, half-life refers to how long it takes for the measured level to halve. A word on the Tmax: it is the time at which the peak concentration occurs. As a reminder, the bioavailability is dose-corrected exposure relative to a reference, in per cent. Higher therefore signals good availability. A word on the solubility: it is the dissolved amount per volume that the medium holds. Low values mean a poorly soluble substance, high ones a readily soluble substance. A word on the Cmax: it is the maximum level reached in the sampled fluid or tissue.

Consider `CC(=O)c1c(-c2ncc(F)c(NCCN3CCCC3)n2)[nH]c2ccccc12`, for which the selectivity ratio in [1] came out at 208. Further, in [2], the IC50 at 24 h was determined as 37.4 µM. The EC50 in the data set with 3T3-L1 [3] was determined as 0.18 µM. Also, the Activity with 3T3-L1 [4] was 102.6%.

For `CC(=O)c1c(-c2nc(C)cc(NCCN3CCCC3)n2)[nH]c2ccccc12`, in [1], the selectivity ratio amounted to 202. In addition, the IC50 at 24 h in [2] is 18.1 µM. In the data set on 3T3-L1 [3], the EC50 came to 0.089 µM. Besides, the Activity with 3T3-L1 [4] came out at 98.3%.

Consider `CC(=O)c1c(-c2nc3c(c(NCCCN(C)C)n2)CCCC3)[nH]c2ccccc12`, for which the Activity in the data set with 3T3-L1 [4] is reported as 28%.

Turning to `COc1cnc(-c2[nH]c3ccccc3c2C(C)=O)nc1NCCCN(C)C`, the Activity in the data set on 3T3-L1 [4] stood at 54.4%.

Take `CC(=O)c1c(-c2nc(NCCCN(C)C)cc(-c3ccccc3)n2)[nH]c2ccccc12`: in the data set on 3T3-L1 [4], the Activity worked out at 26.9%.

`CC(=O)c1c(-c2nc(NCCN3CCCC3)c3ccccc3n2)[nH]c2ccccc12`: the MRT last at 24 h in [5] was 14 h; in data set [9], 9.1 h. Also, the CL/F in data set [6] is 137 mL/min/kg. Further, the results for the AUC(0-t) at 24 h in [7] and in [19] were 574 ng·h/mL and 603 ng·h/mL, respectively. The AUC(0-inf) is 616 ng·h/mL in data set [8] and 749 ng·h/mL in data set [12]. Moreover, the Vd/F in data set [10] was determined as 77.8 L/kg. Moreover, the half-life in data set [11] is 6.5 h; in data set [18], 12.4 h. In addition, the selectivity ratio in [1] was 190. The Tmax in data set [13] came to 1.2 h. The bioavailability in data set [14] turned out to be 32.9%; in data set [17], 38.1%. The same molecule registered a solubility at 24 h in data set [15] of 8 µg/mL (≈ 20 µM). Further, the Vz/F in [16] is 47.8 L/kg. Besides, the IC50 at 24 h in [2] was 8.49 µM. For the same molecule, the EC50 in the data set with 3T3-L1 [3] was determined as 0.045 µM. Moreover, in the data set with 3T3-L1 [4], the Activity is 99.5%. Moreover, the Cmax in [20] was 63.7 ng/mL.

For `CC1=C(O)C(=O)C=C2C1=CC=C1[C@@]2(C)CC[C@@]2(C)[C@@H]3C[C@](C)(C(=O)O)CC[C@]3(C)CC[C@]12C` [CELASTROL], the selectivity ratio in [1] was 7. Further, the IC50 at 24 h in [2] worked out at 0.73 µM. Further, the EC50 with 3T3-L1 [3] is 0.099 µM.

`CC(=O)c1c(-c2nc(NCCCN(C)C)cc(C(F)(F)F)n2)[nH]c2ccccc12`: in the data set on 3T3-L1 [4], the Activity was 15.5%.

Take `CC(=O)c1c(-c2nc(NCCN3CCCC3)cc(-c3ccccc3)n2)[nH]c2ccccc12`: the Activity in the data set with 3T3-L1 [4] amounted to 5.9%.

As to `CC(=O)c1c(-c2nc(NCCCN(C)C)c3ncn(C)c3n2)[nH]c2ccccc12`, the selectivity ratio in data set [1] worked out at 187. The IC50 at 24 h in [2] was found to be 57.7 µM. Moreover, in the data set with 3T3-L1 [3], the EC50 is 0.309 µM. Moreover, the Activity with 3T3-L1 [4] is reported as 99.9%.

`CC(=O)c1c(-c2nc(NCCN(C)C)c3ccccc3n2)[nH]c2ccccc12`: the selectivity ratio in data set [1] is 81. For the same molecule, in [2], the IC50 at 24 h came to 6.31 µM. For the same molecule, the EC50 with 3T3-L1 [3] turned out to be 0.078 µM. Further, in the data set with 3T3-L1 [4], the Activity amounted to 100.5%.

Turning to `CC(=O)c1c(-c2nc3c(c(NCCN(C)C)n2)CNCC3)[nH]c2ccccc12`, the Activity in the data set on 3T3-L1 [4] stood at 25.1%.

Regarding `CC(=O)c1c(-c2nc(NCCCN(C)C)cc(-c3ccc(C(C)(C)C)cc3)n2)[nH]c2ccccc12`, the Activity in the data set with 3T3-L1 [4] is 20.5%.

Consider `CC(=O)c1c(-c2nc3c(c(NCCN4CCCC4)n2)CCCC3)[nH]c2ccccc12`, for which the Activity in the data set with 3T3-L1 [4] stood at 20.5%.

Consider `CC(=O)c1c(-c2nc(O)cc(NCCCN(C)C)n2)[nH]c2ccccc12`, for which the Activity in the data set with 3T3-L1 [4] is on record as -3.1%.

For `CC(=O)c1c(-c2nc3c(c(NCCN(C)C)n2)COC3)[nH]c2ccccc12`, in the data set on 3T3-L1 [4], the Activity is given as 46.9%.

`COc1cnc(-c2[nH]c3ccccc3c2C(C)=O)nc1NCCCN1CCCC1`: the Activity with 3T3-L1 [4] is 49.7%.

With `CC(=O)c1c(-c2nc(C)c(C)c(NCCCN(C)C)n2)[nH]c2ccccc12`, the selectivity ratio in data set [1] was determined as 60. The IC50 at 24 h in [2] was found to be 30.4 µM. Moreover, the EC50 with 3T3-L1 [3] is 0.509 µM. Also, the Activity with 3T3-L1 [4] came to 92.1%.

As to `CC(=O)c1c(-c2ncc(C)c(NCCCN(C)C)n2)[nH]c2ccccc12`, the selectivity ratio in data set [1] was 254. Moreover, the IC50 at 24 h in [2] was determined as 32.2 µM. Also, the EC50 with 3T3-L1 [3] came out at 0.127 µM. For the same molecule, the Activity in the data set on 3T3-L1 [4] came out at 101.8%.

Take `CCc1cc(NCCCN(C)C)nc(-c2[nH]c3ccccc3c2C(C)=O)n1`: the Activity in the data set with 3T3-L1 [4] came out at 73.8%.

With `CC(=O)c1c(-c2nc(NCCCN(C)C)cc(-c3cccnc3)n2)[nH]c2ccccc12`, the Activity with 3T3-L1 [4] stood at 48.2%.

With `COc1cnc(-c2[nH]c3ccccc3c2C(C)=O)nc1NCCN1CCCC1`, the Activity with 3T3-L1 [4] was 48.3%.

`CCc1cc(NCCN2CCCC2)nc(-c2[nH]c3ccccc3c2C(C)=O)n1`: in the data set with 3T3-L1 [4], the Activity was 58.5%.

Turning to `CC(=O)c1c(-c2nccc(NCCCN(C)C)n2)[nH]c2ccccc12`, in the data set with 3T3-L1 [4], the Activity came to 79.5%.

In the case of `CC(=O)c1c(-c2nc(NCCN3CCCC3)cc(C(F)(F)F)n2)[nH]c2ccccc12`, in the data set on 3T3-L1 [4], the Activity is 54.4%.

Take `CC(=O)c1c(-c2nc(NCCN(C)C)c3cccnc3n2)[nH]c2ccccc12`: the Activity in the data set on 3T3-L1 [4] turned out to be 22.4%.

As for `CC(=O)c1c(-c2nccc(NCCN(C)C)n2)[nH]c2ccccc12`, the selectivity ratio in data set [1] was found to be 112. Moreover, the IC50 at 24 h in [2] was 28.4 µM. Also, the EC50 in the data set with 3T3-L1 [3] stood at 0.254 µM. Moreover, the Activity in the data set on 3T3-L1 [4] was found to be 103.9%.

Turning to `CC(=O)c1c(-c2nc(C)cc(NCCCN(C)C)n2)[nH]c2ccccc12`, in data set [1], the selectivity ratio stood at 151. For the same molecule, in data set [2], the IC50 at 24 h amounted to 33.9 µM. The EC50 in the data set on 3T3-L1 [3] amounted to 0.225 µM. For the same molecule, the Activity in the data set with 3T3-L1 [4] turned out to be 99.8%.

`CC(=O)c1c(-c2ncc(F)c(NCCCN(C)C)n2)[nH]c2ccccc12`: the Activity in the data set on 3T3-L1 [4] is 58%.

With `CC(=O)c1c(-c2nc(NCCN3CCCC3)c3cccnc3n2)[nH]c2ccccc12`, the Activity with 3T3-L1 [4] stood at 16.8%.

As to `CC(=O)c1c(-c2ncc(C)c(NCCN3CCCC3)n2)[nH]c2ccccc12`, the selectivity ratio in data set [1] stood at 212. For the same molecule, the IC50 at 24 h in data set [2] was 23.4 µM. The EC50 with 3T3-L1 [3] came out at 0.111 µM. In addition, the Activity in the data set on 3T3-L1 [4] was found to be 99.8%.

In the case of `CC(=O)c1c(-c2nc(NCCN3CCCC3)c3ncn(C)c3n2)[nH]c2ccccc12`, in data set [1], the selectivity ratio came to 222. Besides, in data set [2], the IC50 at 24 h was found to be 65.5 µM. The EC50 with 3T3-L1 [3] was 0.295 µM. The Activity with 3T3-L1 [4] came to 99.5%.
